# Literature values as cited in patent publication US7439256B2, “(Arylamidoaryl) cyanoguanidine compounds” (priority 2004, dated 2008).
# Where a name gives a salt, the structure may show the parent alone.
# Tested on: MO7e human leukemia cells
compound,measurement,setting,value
"Cc1ccc(NC(=O)c2ccc(CN3CCN(C)CC3)cc2)cc1Nc1nccc(-c2cccnc2)n1 [Gleevec, imatinib mesylate]",GM-CSF stimulated growth of MO7e human leukemia cells,GM-CSF stimulated,not affected
same,Kit ligand-stimulated growth of MO7e human leukemia cells,Kit ligand-stimulated,inhibited
same,apoptosis in MO7e human leukemia cells,Kit ligand-stimulated conditions,induces apoptosis
